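Each compound was tested at five concentrations against cells in 96-well plates for 48 hours. TGI marks complete inhibition of growth.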
Assays:
Assay in all cases: DTP human tumour cell line panel, 48 h
ACHN renal = system: ACHN renal
PC-3 prostate = system: PC-3 prostate
HS 578T breast = system: HS 578T breast
SK-MEL-28 melanoma = system: SK-MEL-28 melanoma
UO-31 renal = system: UO-31 renal
SF-268 CNS = system: SF-268 CNS
SNB-19 CNS = system: SNB-19 CNS
LOX IMVI melanoma = system: LOX IMVI melanoma
IGROV1 ovarian = system: IGROV1 ovarian
OVCAR-5 ovarian = system: OVCAR-5 ovarian
UACC-257 melanoma = system: UACC-257 melanoma
SK-OV-3 ovarian = system: SK-OV-3 ovarian
M14 melanoma = system: M14 melanoma
HCC-2998 colon = system: HCC-2998 colon
K-562 leukemia = system: K-562 leukemia
MALME-3M melanoma = system: MALME-3M melanoma
786-0 renal = system: 786-0 renal
TK-10 renal = system: TK-10 renal
HT29 colon = system: HT29 colon
SF-295 CNS = system: SF-295 CNS
OVCAR-4 ovarian = system: OVCAR-4 ovarian
MDA-N = system: MDA-N
KM12 colon = system: KM12 colon
RPMI-8226 leukemia = system: RPMI-8226 leukemia
HOP-62 NSCLC = system: HOP-62 NSCLC
SR leukemia = system: SR leukemia
MCF7 breast = system: MCF7 breast
U251 CNS = system: U251 CNS
SF-539 CNS = system: SF-539 CNS
DU-145 prostate = system: DU-145 prostate
CCRF-CEM leukemia = system: CCRF-CEM leukemia
SK-MEL-2 melanoma = system: SK-MEL-2 melanoma
MOLT-4 leukemia = system: MOLT-4 leukemia
OVCAR-8 ovarian = system: OVCAR-8 ovarian
EKVX NSCLC = system: EKVX NSCLC
CAKI-1 renal = system: CAKI-1 renal
SNB-75 CNS = system: SNB-75 CNS
UACC-62 melanoma = system: UACC-62 melanoma
NCI-H226 lung = system: NCI-H226 lung
NCI/ADR-RES ovarian = system: NCI/ADR-RES ovarian
A498 renal = system: A498 renal
HOP-92 NSCLC = system: HOP-92 NSCLC
MDA-MB-435 = system: MDA-MB-435
OVCAR-3 ovarian = system: OVCAR-3 ovarian
SW-620 colon = system: SW-620 colon
RXF 393 renal = system: RXF 393 renal
T-47D breast = system: T-47D breast
NCI-H23 lung = system: NCI-H23 lung
HL-60(TB) leukemia = system: HL-60(TB) leukemia
SK-MEL-5 melanoma = system: SK-MEL-5 melanoma
NCI-H460 lung = system: NCI-H460 lung
NCI-H522 lung = system: NCI-H522 lung
COLO 205 colon = system: COLO 205 colon
MDA-MB-231 breast = system: MDA-MB-231 breast
HCT-15 colon = system: HCT-15 colon
A549 NSCLC = system: A549 NSCLC
HCT-116 colon = system: HCT-116 colon
BT-549 breast = system: BT-549 breast
SN12C renal = system: SN12C renal

## CN(C)/N=C1\C=C2CC[C@H](O[Si](C)(C)C(C)(C)C)[C@@]2(C)CC1
ACHN renal
  TGI: 30.1 µM
PC-3 prostate
  TGI: 28.1 µM
HS 578T breast
  TGI: 43.9 µM
SK-MEL-28 melanoma
  TGI: 29.5 µM
UO-31 renal
  TGI: 29.8 µM
SF-268 CNS
  TGI: 39.6 µM
SNB-19 CNS
  TGI: 31.9 µM
LOX IMVI melanoma
  TGI: 34.4 µM
IGROV1 ovarian
  TGI: 41 µM
OVCAR-5 ovarian
  TGI: 32.5 µM
UACC-257 melanoma
  TGI: 30.6 µM
SK-OV-3 ovarian
  TGI: 68.2 µM
M14 melanoma
  TGI: 33 µM
HCC-2998 colon
  TGI: 30.6 µM
K-562 leukemia
  TGI: 35.9 µM
MALME-3M melanoma
  TGI: 30.8 µM
786-0 renal
  TGI: 31.9 µM
TK-10 renal
  TGI: 34.6 µM
HT29 colon
  TGI: 34.9 µM
SF-295 CNS
  TGI: 30 µM
OVCAR-4 ovarian
  TGI: 28.6 µM
MDA-N
  TGI: 41.4 µM
KM12 colon
  TGI: 30.9 µM
RPMI-8226 leukemia
  TGI: 22 µM
HOP-62 NSCLC
  TGI: 32.6 µM
SR leukemia
  TGI: 40.9 µM
MCF7 breast
  TGI: 31.5 µM
U251 CNS
  TGI: 29.7 µM
SF-539 CNS
  TGI: 42.4 µM
DU-145 prostate
  TGI: 33.2 µM
CCRF-CEM leukemia
  TGI: 44 µM
SK-MEL-2 melanoma
  TGI: 30.4 µM
MOLT-4 leukemia
  TGI: 32.4 µM
OVCAR-8 ovarian
  TGI: 33.3 µM
EKVX NSCLC
  TGI: 38.6 µM
CAKI-1 renal
  TGI: 27.3 µM
SNB-75 CNS
  TGI: 30.9 µM
UACC-62 melanoma
  TGI: 30.4 µM
NCI-H226 lung
  TGI: 35 µM
NCI/ADR-RES ovarian
  TGI: 34.5 µM
A498 renal
  TGI: 38.7 µM
HOP-92 NSCLC
  TGI: 28.5 µM
MDA-MB-435
  TGI: 32 µM
OVCAR-3 ovarian
  TGI: 27.9 µM
SW-620 colon
  TGI: 31.9 µM
RXF 393 renal
  TGI: 28 µM
T-47D breast
  TGI: 29.6 µM
NCI-H23 lung
  TGI: 52.4 µM
HL-60(TB) leukemia
  TGI: 26.5 µM
SK-MEL-5 melanoma
  TGI: 24.9 µM
NCI-H460 lung
  TGI: 31.9 µM
NCI-H522 lung
  TGI: 26.3 µM
COLO 205 colon
  TGI: 32.1 µM
MDA-MB-231 breast
  TGI: 30.3 µM
HCT-15 colon
  TGI: 33 µM
A549 NSCLC
  TGI: 34.8 µM

## COC(=O)/C(=N\N)C(C(=O)C(=O)Nc1cccc([N+](=O)[O-])c1)c1nc2ccc(C(=O)c3ccccc3)cc2[nH]c1=O (centres undefined)
ACHN renal
  TGI: > 100 µM
PC-3 prostate
  TGI: > 100 µM
HS 578T breast
  TGI: > 100 µM
SK-MEL-28 melanoma
  TGI: > 100 µM
UO-31 renal
  TGI: > 100 µM
SF-268 CNS
  TGI: > 100 µM
SNB-19 CNS
  TGI: > 100 µM
LOX IMVI melanoma
  TGI: > 100 µM
IGROV1 ovarian
  TGI: > 100 µM
OVCAR-5 ovarian
  TGI: > 100 µM
UACC-257 melanoma
  TGI: > 100 µM
SK-OV-3 ovarian
  TGI: > 100 µM
HCT-116 colon
  TGI: > 100 µM
M14 melanoma
  TGI: > 100 µM
HCC-2998 colon
  TGI: > 100 µM
786-0 renal
  TGI: > 100 µM
BT-549 breast
  TGI: > 100 µM
TK-10 renal
  TGI: > 100 µM
HT29 colon
  TGI: > 100 µM
SF-295 CNS
  TGI: > 100 µM
OVCAR-4 ovarian
  TGI: > 100 µM
MDA-N
  TGI: > 100 µM
KM12 colon
  TGI: > 100 µM
HOP-62 NSCLC
  TGI: > 100 µM
MCF7 breast
  TGI: > 100 µM
U251 CNS
  TGI: > 100 µM
SF-539 CNS
  TGI: > 100 µM
DU-145 prostate
  TGI: > 100 µM
CCRF-CEM leukemia
  TGI: 79.4 µM
SK-MEL-2 melanoma
  TGI: > 100 µM
MOLT-4 leukemia
  TGI: 89.8 µM
OVCAR-8 ovarian
  TGI: > 100 µM
EKVX NSCLC
  TGI: > 100 µM
CAKI-1 renal
  TGI: > 100 µM
SNB-75 CNS
  TGI: > 100 µM
UACC-62 melanoma
  TGI: > 100 µM
NCI-H226 lung
  TGI: > 100 µM
NCI/ADR-RES ovarian
  TGI: > 100 µM
HOP-92 NSCLC
  TGI: > 100 µM
MDA-MB-435
  TGI: > 100 µM
OVCAR-3 ovarian
  TGI: > 100 µM
SW-620 colon
  TGI: > 100 µM
RXF 393 renal
  TGI: > 100 µM
NCI-H23 lung
  TGI: > 100 µM
HL-60(TB) leukemia
  TGI: > 100 µM
SK-MEL-5 melanoma
  TGI: > 100 µM
NCI-H460 lung
  TGI: > 100 µM
NCI-H522 lung
  TGI: > 100 µM
COLO 205 colon
  TGI: > 100 µM
MDA-MB-231 breast
  TGI: > 100 µM
HCT-15 colon
  TGI: > 100 µM
A549 NSCLC
  TGI: > 100 µM
SN12C renal
  TGI: > 100 µM

Reference: PubChem BioAssay (NCI)
